The text below walks through data of article PMC8812549 (Journal of medicinal chemistry, 2021).

Test in one data set: not given
The conditions noted are these: mice, 1 mg/kg, di-HCl salt; liver.
Regarding `Cc1ccc([C@H]2C[C@H](N(Cc3ccc(Br)c(Cl)c3)C3CCNCC3)C2)cc1` [77b], the Cmax liver came out at 4.13 µM.

Still in this data set, the particulars now being: mice, 10 mg/kg IP, 24 hours; posture, body temperature, respiratory rate.
With `Clc1cc(CN(C2CCNCC2)C2CC(c3ccc(Br)cc3)C2)ccc1Br` (stereo not drawn) [compound 58, N-(4-Bromo-3-chlorobenzyl)-N-(3-(4-bromophenyl)cyclobutyl)piperidin-4-amine], the “unusual behavior or acute toxicity” value was “No unusual behavior or acute toxicity”.

The same data set, now with this note: mice, 10 mg/kg IP, oxalate salt; liver.
`Clc1cc(CN(C2CCNCC2)C2CC(c3ccc(Br)cc3)C2)ccc1Br` (stereo not drawn) [compound 58, N-(4-Bromo-3-chlorobenzyl)-N-(3-(4-bromophenyl)cyclobutyl)piperidin-4-amine]: the Cmax liver worked out at 112 µM.

A short description of a further data set: Parallel artificial membrane permeability assay. Format: in vitro ADME. The conditions noted are these: passive permeability, pH 7.4.
For `Cc1ccc(C2CC(N(Cc3ccc(Br)c(Cl)c3)C3CCNCC3)C2)cc1` (stereo not drawn) [compound 56, N-(4-Bromo-3-chlorobenzyl)-N-(3-(p-tolyl)cyclobutyl)piperidin-4-amine], the PAMPA is listed as 806 1e^−6 cm/s.
With `Clc1cc(CN(C2CCNCC2)C2CC(c3ccc(Br)cc3)C2)ccc1Br` (stereo not drawn) [compound 58, N-(4-Bromo-3-chlorobenzyl)-N-(3-(4-bromophenyl)cyclobutyl)piperidin-4-amine], the PAMPA is recorded as 32 1e^−6 cm/s.
Consider `Fc1ccc(C2CC(N(Cc3ccc(Br)c(Cl)c3)C3CCNCC3)C2)cc1` (stereo not drawn) [compound 59], for which the PAMPA was 398 1e^−6 cm/s.
Turning to `Cc1cccc(C2CC(N(Cc3ccc(Br)c(Cl)c3)C3CCNCC3)C2)c1` (stereo not drawn) [compound 60], the PAMPA was 265 1e^−6 cm/s.
Regarding `Clc1cc(CN(C2CCNCC2)C2CC(c3cccc(Br)c3)C2)ccc1Br` (stereo not drawn) [compound 62], the PAMPA is given as 14 1e^−6 cm/s.
Consider `Cc1ccc(C2CC(N(Cc3ccc(Br)c(Cl)c3)C3CCOCC3)C2)cc1` (stereo not drawn) [compound 66], for which the PAMPA is recorded as <6.4 1e^−6 cm/s.
Consider `CC(=O)N1CCC(N(Cc2ccc(Br)c(Cl)c2)C2CC(c3ccc(C)cc3)C2)CC1` (stereo not drawn) [compound 67], for which the PAMPA is 1909 1e^−6 cm/s.
On the same count and under the same terms, as for `Cc1ccc(C2CC(N(Cc3ccc(Br)c(Cl)c3)C3CCN(C)CC3)C2)cc1` (stereo not drawn) [compound 68], the figure is 274.27 1e^−6 cm/s; as for `Cc1ccc(C2CC(N(Cc3ccc(Br)c(Cl)c3)C3CCN(C(C)C)CC3)C2)cc1` (stereo not drawn) [compound 69], <23.1 1e^−6 cm/s; as for `Cc1ccc(C2CC(N(Cc3ccc(Br)c(Cl)c3)C3CCC(N)CC3)C2)cc1` (stereo not drawn) [compound 70], 818.04 1e^−6 cm/s.
Still for that read-out and setting: for `Cc1ccc(C2CC(N(Cc3ccc(Br)c(Cl)c3)C3CCCNCC3)C2)cc1` (stereo not drawn) [compound 72] the value was 665.84 1e^−6 cm/s.
`Cc1ccc(C2CC(N(Cc3ccc(Br)c(Cl)c3)C3CC4CNC3C4)C2)cc1` (stereo not drawn) [compound 74]: the PAMPA is recorded as 122.99 1e^−6 cm/s.
